Test results taken from US11807644B2 (PMV Pharmaceuticals, Inc., priority 2020, dated 2023).

target: T1, recombinant His-tag Y220C p53 DBD protein (Homo sapiens, UniProt P04637, Y220C); test: In vitro DNA binding activity assay (TR-FRET): binding of His-tag Y220C p53 DBD to biotin-labeled consensus DNA; format: biochemical; conditions: SC150 = concentration to increase DNA binding by […], His-tag Y220C p53 DBD, biotin-labeled consensus DNA
T1 construct: recombinant His-tag Y220C p53 DBD protein (amino acids #˜94-312)

Row | Compound | Y220C SC150 (μM)
1 | COCC(C)(C)n1ccc(C(=O)NCc2nc(-c3cc4c(N[C@@H]5CCN(C)C[C@@H]5F)cccc4n3CC(F)(F)F)no2)n1 [Compound 547B, N-{[3-(4-{[(3S,4R)-3-fluoro-1-methylpiperidin-4-yl]amino}-1-(2,2,2-trifluoroethyl)-1H-indol-2-yl)-1,2,4-oxadiazol-5-yl]methyl}-1-(1-methoxy-2-methylpropan-2-yl)-1H-pyrazole-3-carboxamide] | * (* = 0 μM ≤ SC150 < 0.1 μM)
2 | CN1CCC(Nc2cccc3c2cc(-c2nc(CNC(=O)c4cnn(C)c4)no2)n3CC(F)(F)F)CC1 [Compound 140B, 1-methyl-N-[(5-{4-[(1-methylpiperidin-4-yl)amino]-1-(2,2,2-trifluoroethyl)-1H-indol-2-yl}-1,2,4-oxadiazol-3-yl)methyl]-1H-pyrazole-4-carboxamide] | ** (** = 0.1 μM ≤ SC150 < 0.5 μM)
3 | CN1CCC(Nc2cccc3c2cc(-c2nnc(CNC(=O)c4cccnc4)s2)n3CC(F)(F)F)CC1 [Compound 42B, N-[(5-{4-[(1-methylpiperidin-4-yl)amino]-1-(2,2,2-trifluoroethyl)-1H-indol-2-yl}-1,3,4-thiadiazol-2-yl)methyl]pyridine-3-carboxamide] | ** (** = 0.1 μM ≤ SC150 < 0.5 μM)
4 | CO[C@H]1CCCC[C@@H]1n1cc(C(=O)NCc2nc(-c3cc4c(N[C@@H]5CCN(C)C[C@@H]5F)cccc4n3CC(F)(F)F)no2)cn1 (relative stereo) [Compound 385B] | * (* = 0 μM ≤ SC150 < 0.1 μM)
5 | CN1CCC(Nc2cccc3c2cc(-c2nc(CNC(=O)c4ccccc4)no2)n3CC(F)(F)F)CC1 [Compound 138B, N-[(5-{4-[(1-methylpiperidin-4-yl)amino]-1-(2,2,2-trifluoroethyl)-1H-indol-2-yl}-1,2,4-oxadiazol-3-yl)methyl]benzamide] | ** (** = 0.1 μM ≤ SC150 < 0.5 μM)
6 | CN1CCC(Nc2cccc3c2cc(-c2noc(CNC(=O)[C@@H]4C[C@H]4c4ccccc4)n2)n3CC(F)(F)F)CC1 (racemic) [Compound 156B, (+/−)-(1R,2R)—N-[(3-{4-[(1-methylpiperidin-4-yl)amino]-1-(2,2,2-trifluoroethyl)-1H-indol-2-yl}-1,2,4-oxadiazol-5-yl)methyl]-2-phenylcyclopropane-1-carboxamide] | * (* = 0 μM ≤ SC150 < 0.1 μM)
7 | CC(C)(C)N1CC[C@@H](Nc2cccc3c2cc(-c2noc(CNC(=O)c4ccn(C(C)(C)C)c4)n2)n3CC(F)(F)F)[C@@H](F)C1 [Compound 393B, 1-tert-butyl-N-{[3-(4-{[(3S,4R)-1-tert-butyl-3-fluoropiperidin-4-yl]amino}-1-(2,2,2-trifluoroethyl)-1H-indol-2-yl)-1,2,4-oxadiazol-5-yl]methyl}-1H-pyrrole-3-carboxamide] | * (* = 0 μM ≤ SC150 < 0.1 μM)
8 | CN1CC[C@@H](Nc2cccc3c2cc(-c2noc(C(=O)NCc4cnn(C)c4)n2)n3CC(F)(F)F)[C@@H](F)C1 [Compound 546B, 3-(4-{[(3S,4R)-3-fluoro-1-methylpiperidin-4-yl]amino}-1-(2,2,2-trifluoroethyl)-1H-indol-2-yl)-N-[(1-methyl-1H-pyrazol-4-yl)methyl]-1,2,4-oxadiazole-5-carboxamide] | ** (** = 0.1 μM ≤ SC150 < 0.5 μM)
9 | CN1CC[C@@H](Nc2cccc3c2cc(-c2noc(CNC(=O)c4ccccn4)n2)n3CC(F)(F)F)[C@@H](F)C1 [Compound 201B, N-{[3-(4-{[(3S,4R)-3-fluoro-1-methylpiperidin-4-yl]amino}-1-(2,2,2-trifluoroethyl)-1H-indol-2-yl)-1,2,4-oxadiazol-5-yl]methyl}pyridine-2-carboxamide] | * (* = 0 μM ≤ SC150 < 0.1 μM)
10 | CN1CC[C@@H](Nc2cccc3c2cc(-c2noc(CNc4nccc5c4cnn5C)n2)n3CC(F)(F)F)[C@@H](F)C1 [Compound 452B, N-[(3S,4R)-3-fluoro-1-methylpiperidin-4-yl]-2-{5-[({1-methyl-1H-pyrazolo[^4,3-c]pyridin-4-yl}amino)methyl]-1,2,4-oxadiazol-3-yl}-1-(2,2,2-trifluoroethyl)-1H-indol-4-amine] | * (* = 0 μM ≤ SC150 < 0.1 μM)
11 | COC1CCCC1n1ccc(C(=O)NCc2nc(-c3cc4c(N[C@@H]5CCN(C)C[C@@H]5F)cccc4n3CC(F)(F)F)no2)c1 (stereo in doubt) [Compound 364B, N-{[3-(4-{[(3S,4R)-3-fluoro-1-methylpiperidin-4-yl]amino}-1-(2,2,2-trifluoroethyl)-1H-indol-2-yl)-1,2,4-oxadiazol-5-yl]methyl}-1-[(1R,2S)-2-methoxycyclopentyl]-1H-pyrrole-3-carboxamide] | * (* = 0 μM ≤ SC150 < 0.1 μM)
12 | CC(C)(C)n1ccc(C(=O)NCc2nc(-c3cc4c(N[C@@H]5CCN(C6CC6)C[C@@H]5F)cccc4n3CC(F)(F)F)no2)c1 [Compound 330B, 1-tert-butyl-N-{[3-(4-{[(3S,4R)-1-cyclopropyl-3-fluoropiperidin-4-yl]amino}-1-(2,2,2-trifluoroethyl)-1H-indol-2-yl)-1,2,4-oxadiazol-5-yl]methyl}-1H-pyrrole-3-carboxamide] | * (* = 0 μM ≤ SC150 < 0.1 μM)
13 | CN1CC[C@H](Nc2cccc3c2cc(-c2nnc(CNCC4CC4)o2)n3CC(F)(F)F)[C@H](F)C1 (racemic) [Compound 121B, (+/−)-2-(5-{[(cyclopropylmethyl)amino]methyl}-1,3,4-oxadiazol-2-yl)-N-[(3R,4S)-3-fluoro-1-methylpiperidin-4-yl]-1-(2,2,2-trifluoroethyl)-1H-indol-4-amine] | **** (**** = 1 μM ≤ SC150 < 10 μM)
14 | CN1CC[C@@H](Nc2cccc3c2cc(-c2noc(CNC(=O)c4ccn(C5CCOCC5)c4)n2)n3CC(F)(F)F)[C@@H](F)C1 [Compound 335B, N-{[3-(4-{[(3S,4R)-3-fluoro-1-methylpiperidin-4-yl]amino}-1-(2,2,2-trifluoroethyl)-1H-indol-2-yl)-1,2,4-oxadiazol-5-yl]methyl}-1-(oxan-4-yl)-1H-pyrrole-3-carboxamide] | * (* = 0 μM ≤ SC150 < 0.1 μM)
15 | CN1CCC(Nc2cccc3c2cc(-c2noc(CNC(=O)c4ccn(C)c4)n2)n3CC(F)(F)F)CC1 [Compound 152B, 1-methyl-N-[(3-{4-[(1-methylpiperidin-4-yl)amino]-1-(2,2,2-trifluoroethyl)-1H-indol-2-yl}-1,2,4-oxadiazol-5-yl)methyl]-1H-pyrrole-3-carboxamide] | * (* = 0 μM ≤ SC150 < 0.1 μM)
16 | CN1CC[C@@H](Nc2cccc3c2cc(-c2noc(CNC(=O)[C@H]4C[C@@H](C)C4)n2)n3CC(F)(F)F)[C@@H](F)C1 [Compound 223B, (1r,3s)-N-{[3-(4-{[(3S,4R)-3-fluoro-1-methylpiperidin-4-yl]amino}-1-(2,2,2-trifluoroethyl)-1H-indol-2-yl)-1,2,4-oxadiazol-5-yl]methyl}-3-methylcyclobutane-1-carboxamide] | * (* = 0 μM ≤ SC150 < 0.1 μM)

same assay, conditions: concentration to increase DNA binding by […], incubated at either 27° C. or 29° C. for 60 min

Row | Compound | SC150 (μM)
17 | N#CC1(c2ccc(-c3cc4c(NC5CCS(=O)(=O)CC5)cccc4n3CC(F)(F)F)cc2)CC1 [Compound 26A, 1-(4-{4-[(1,1-dioxo-1λ^6-thian-4-yl)amino]-1-(2,2,2-trifluoroethyl)-1H-indol-2-yl}phenyl)cyclopropane-1-carbonitrile] | ++ (++ = 2 μM ≤ SC150 < 5 μM)
